From patent publication US9850283B2, “Macrocyclic inhibitors of the PD-1/PD-L1 and CD80(B7-1)/PD-L1 protein/protein interactions” (BRISTOL-MYERS SQUIBB COMPANY, priority 2013, dated 2017)
pIC50: −log10 of the molar value. Read-outs that look alike come from different tables or passages of the source. Positions of bridges follow the written chain, without caps; N, C: chain ends. Non-standard residues stand in square brackets, D forms with d. Residues, ends and D or L forms follow the SMILES beside them. Phe(3-CF3) = N[C@@H](Cc1cccc(C(F)(F)F)c1)C(=O)O; Phe(4-NH2) = Nc1ccc(C[C@H](N)C(=O)O)cc1; Phe(2-Me) = Cc1ccccc1C[C@H](N)C(=O)O; Hyp = O=C(O)[C@@H]1C[C@@H](O)CN1; NMeF = CN[C@@H](Cc1ccccc1)C(=O)O; NMeNle = CCCC[C@H](NC)C(=O)O; NMeA = CN[C@@H](C)C(=O)O; Dap = NC[C@H](N)C(=O)O; Sar = CNCC(=O)O

Tests used:
Human PD-L1/PD-1 = target: T1, Human PD-L1/PD-1 (Homo sapiens, UniProt Q9NZQ7); test: HTRF PD-1-Ig/PD-L1-His binding assay (human PD-L1)
T1 construct: made in house; host or cells: HEK293T
Procedure, shortened: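 Soluble Fc-fused PD-1 and His-tagged PD-L1 (truncated before the transmembrane region) were combined in dPBS with 0.1% (w/v) BSA and 0.05% (v/v) Tween-20. Binding was read by HTRF using europium cryptate anti-Ig antibody (1 nM final) and APC anti-His antibody (20 nM final).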

[1] = target: T2, LK35.2-hPD-L1 cells / PE-labeled PD-1-Ig (Homo sapiens, UniProt Q9NZQ7); test: LK35.2-hPD-L1 cell binding high-content screening assay; assay type: cell-based
T2 construct: expressed in transfected cells; host or cells: LK35.2 mouse B cell line
Procedure, shortened: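 Fluorescent PD-1-Ig binding to PD-L1-expressing LK35.2 cells, imaged after washing. Conditions: 1 nM PE-PD-1-Ig, 37 °C, 1 h, RPMI with 10% fetal calf serum.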

[2] = cluster symbol, read-out: HTRF IC50 cluster
[3] = cell binding assay, cell line not given, cluster symbol, read-out: CBA IC50 cluster
[4] = cluster symbol, cell line of CBA not given (LK35.2-hPD-L1 or 293T-hPD-L1), read-out: CBA IC50 cluster

T1 sequence (Q9NZQ7 with tags, fused parts or gaps): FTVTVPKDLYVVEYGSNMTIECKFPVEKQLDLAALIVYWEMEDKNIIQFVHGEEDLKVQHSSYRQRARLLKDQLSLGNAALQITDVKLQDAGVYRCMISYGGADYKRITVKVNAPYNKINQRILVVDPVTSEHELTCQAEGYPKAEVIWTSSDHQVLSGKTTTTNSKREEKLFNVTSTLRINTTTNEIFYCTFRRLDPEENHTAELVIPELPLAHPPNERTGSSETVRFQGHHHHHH
T2 sequence (Q9NZQ7 19-290): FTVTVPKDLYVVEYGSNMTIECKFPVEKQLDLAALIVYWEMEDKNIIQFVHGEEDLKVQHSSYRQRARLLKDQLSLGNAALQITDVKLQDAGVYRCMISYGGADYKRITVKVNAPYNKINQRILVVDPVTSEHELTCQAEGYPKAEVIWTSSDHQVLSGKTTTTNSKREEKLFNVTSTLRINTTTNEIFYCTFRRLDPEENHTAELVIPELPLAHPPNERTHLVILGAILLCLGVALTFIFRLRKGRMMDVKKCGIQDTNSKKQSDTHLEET

| Compound | pIC50 (Human PD-L1/PD-1; value given instead of cluster, read-out: HTRF IC50 value) | pIC50 ([1]; cell binding assay, cell line not given, value given instead of cluster, read-out: CBA IC50 value) | pIC50 (Human PD-L1/PD-1; [2]) | pIC50 [1, 3] | pIC50 [1, 4] |
| --- | --- | --- | --- | --- | --- |
| CCCC[C@H]1C(=O)N(C)CC(=O)N[C@@H](CC(=O)O)C(=O)N[C@@H](C(C)C)C(=O)N(C)[C@@H](Cc2ccccc2)C(=O)N[C@@H](Cc2ccc(O)cc2)C(=O)N(C)CC(=O)N[C@@H](Cc2cccc(C(F)(F)F)c2)C(=O)N[C@@H](Cc2ccc(O)cc2)C(=O)N[C@@H](CC(C)C)C(=O)N[C@H](C(=O)NCC(N)=O)CSCC(=O)N[C@@H](Cc2ccccc2)C(=O)N(C)[C@@H](Cc2ccccc2)C(=O)N1C [Example 3550] ({CH2CO}-F[NMeF][NMeNle][Sar]DV[NMeF]Y[Sar][Phe(3-CF3)]YLCG-NH2; thioether N-13) | 7.39 | 6.83 |  |  |  |
| CCCC[C@H]1C(=O)N(C)[C@@H](CCCC)C(=O)N[C@@H](CCCCN)C(=O)N[C@H](C(=O)NCC(N)=O)CSCC(=O)N[C@@H](Cc2ccc(O)cc2)C(=O)N(C)[C@@H](C)C(=O)N[C@@H](CC(=O)O)C(=O)N2CCC[C@H]2C(=O)N[C@@H](Cc2c[nH]cn2)C(=O)N[C@@H](CCC(N)=O)C(=O)N2C[C@H](O)C[C@H]2C(=O)N[C@@H](Cc2c[nH]c3ccccc23)C(=O)N[C@@H](CO)C(=O)N[C@@H](Cc2c[nH]c3ccccc23)C(=O)N1C [Example 5120] ({CH2CO}-Y[NMeA]DPHQ[Hyp]WSW[NMeNle][NMeNle]KCG-NH2; thioether N-14) |  |  | 8.17 to 9.41 | 8.33 to 9.80 |  |
| CCCC[C@H]1C(=O)N(C)[C@@H](CCCC)C(=O)N[C@@H](CCCNC(=N)N)C(=O)N[C@H](C(=O)NCC(N)=O)CSCC(=O)N[C@@H](Cc2ccc(O)cc2)C(=O)N(C)[C@@H](C)C(=O)N[C@@H](CC(N)=O)C(=O)N2CCC[C@H]2C(=O)N[C@@H](CN)C(=O)N[C@@H](CC(C)C)C(=O)N2C[C@H](O)C[C@H]2C(=O)N[C@@H](Cc2c[nH]c3ccccc23)C(=O)N[C@@H](C(C)C)C(=O)N[C@@H](Cc2c[nH]c3ccccc23)C(=O)N1C [Example 6032] ({CH2CO}-Y[NMeA]NP[Dap]L[Hyp]WVW[NMeNle][NMeNle]RCG-NH2; thioether N-14) |  |  | 8.17 to 9.41 | 8.33 to 9.80 |  |
| CCCC[C@H]1C(=O)N(C)[C@@H](CCCC)C(=O)N[C@@H](CN)C(=O)N[C@H](C(=O)NCC(N)=O)CSCC(=O)N[C@@H](Cc2ccccc2)C(=O)N(C)[C@@H](C)C(=O)N[C@@H](CC(N)=O)C(=O)N2CCC[C@H]2C(=O)N[C@@H](Cc2cnc[nH]2)C(=O)N[C@@H](CC(C)C)C(=O)N(C)CC(=O)N[C@@H](Cc2c[nH]c3ccccc23)C(=O)N[C@@H](CO)C(=O)N[C@@H](Cc2c[nH]c3ccccc23)C(=O)N1C [Example 5007] ({CH2CO}-F[NMeA]NPHL[Sar]WSW[NMeNle][NMeNle][Dap]CG-NH2; thioether N-14) |  |  | 7.52 to 8.17 | 7.14 to 8.32 |  |
| CCCC[C@H]1C(=O)N(C)CC(=O)N[C@@H](CC(=O)O)C(=O)N[C@@H](C(C)C)C(=O)N(C)[C@@H](Cc2ccccc2)C(=O)N[C@@H](Cc2ccc(N)cc2)C(=O)N(C)CC(=O)N[C@@H](Cc2c[nH]c3ccccc23)C(=O)N[C@@H](Cc2ccc(O)cc2)C(=O)N[C@@H](CC(C)C)C(=O)N[C@H](C(=O)NCC(N)=O)CSCC(=O)N[C@@H](Cc2ccccc2)C(=O)N(C)[C@@H](Cc2ccccc2)C(=O)N1C [Example 3139] ({CH2CO}-F[NMeF][NMeNle][Sar]DV[NMeF][Phe(4-NH2)][Sar]WYLCG-NH2; thioether N-13) |  |  | 7.52 to 8.17 |  | 7.14 to 8.32 |
| CCCC[C@H]1C(=O)N(C)CC(=O)N[C@@H](CC(=O)O)C(=O)N[C@@H](C(C)C)C(=O)N(C)[C@@H](Cc2ccccc2)C(=O)N[C@@H](Cc2ccc(O)cc2)C(=O)N(C)CC(=O)N[C@@H](Cc2c[nH]c3ccccc23)C(=O)N[C@@H](Cc2ccc(O)cc2)C(=O)N[C@@H](CC(C)C)C(=O)N[C@H](C(=O)NCC(N)=O)CSCC(=O)N[C@@H](Cc2ccccc2C)C(=O)N(C)[C@@H](Cc2ccccc2)C(=O)N1C [Example 3105] ({CH2CO}-[Phe(2-Me)][NMeF][NMeNle][Sar]DV[NMeF]Y[Sar]WYLCG-NH2; thioether N-13) |  |  | < 7.52 |  | < 7.13 |
| CCCC[C@H]1C(=O)N(C)[C@@H](CCCC)C(=O)N[C@@H](CC(=O)O)C(=O)N[C@H](C(=O)NCC(N)=O)CSCC(=O)N[C@@H](Cc2ccc(O)cc2)C(=O)N(C)[C@@H](C)C(=O)N[C@@H](CC(=O)O)C(=O)N2CCC[C@H]2C(=O)N[C@@H](Cc2c[nH]cn2)C(=O)N[C@@H](CCCCN)C(=O)N2C[C@H](O)C[C@H]2C(=O)N[C@@H](Cc2c[nH]c3ccccc23)C(=O)N[C@@H](CCCCN)C(=O)N[C@@H](Cc2c[nH]c3ccccc23)C(=O)N1C [Example 5096] ({CH2CO}-Y[NMeA]DPHK[Hyp]WKW[NMeNle][NMeNle]DCG-NH2; thioether N-14) |  |  | 8.17 to 9.41 | 8.33 to 9.80 |  |
